Source: patent US7678386B2, “Liposomes coated with selected antibodies that bind to aminophospholipids” (Board of Regents the University of Texas, priority 2002, dated 2010)

B1: IL-1β: recombinant murine interleukin-1 beta (protein, UniProt P10749 118-269, looked up)
Interleukin-1 beta: VPIRQLHYRLRDEQQKSLVLSDPYELKALHLNGQNINQQVIFSMSFVQGEPSNDKIPVALGLKGKNLYLSCVMKDGTPTLQLESVDPKQYPKKKMEKRFVFNKIEVKSKVEFESAEFPNWYISTSQAEHKPVFLGNNSGQDIIDFTMESVSS
B2: IL-1α: recombinant murine interleukin-1 alpha (protein, UniProt P01582 115-270, looked up)
Interleukin-1 alpha: SAPYTYQSDLRYKLMKLVRQKFVMNDSLNQTIYQDVDKHYLSTTWLNDLQQEVKFDMYAYSSGGDDSKYPVTLKISDSQLFVSAQGEDQPVLLKELPETPKLITGSETDLIFFWKSINSKNYFTSAAYPELFIATKEQSRVHLARGLPSMTDFQIS

What was measured:
[1] = patients having progressive disease before treatment; cited from earlier work
[2] = system: ABAE cells; assay: Detection of PS on cultured endothelial cells by 125I-labeled annexin V; type: cell-based, bovine; conditions: for 125I-Annexin V (% of Max binding), ABAE cells: 24 h, concentration as listed per treatment; for anionic phospholipid-exposure (% of the maximum): ABAE cells, hypoxia/reoxygenation in the presence of sub-toxic cytokine
Procedure: (§1) All reagents were diluted in medium containing 10% serum and incubated with the cells at 37° C. for 24 h.
(§2) To study the effect of hypoxia, cells were seeded on 24 well plates and were incubated in a humidified normoxic atmosphere (21% O2. 5% CO2) for 48 h before being transferred to a humidified hypoxic atmosphere (1% O2, 5% CO2, 94% N2) in a sealed chamber (Billups Rothenberg Inc., Del Mar, Calif.). Cells were incubated in a hypoxic chamber for 24 h at 37° C. and were then returned to a normoxic environment for 4 h at 37° C. The cells were compared to a parallel culture from an identical passage, seeded on the same day and maintained entirely under normoxic conditions. In some studies, IL-1α (10 ng/ml) and TNFα (20 ng/ml) were added to the medium before transfer to the hypoxic chamber.
(§3) After treatment with the reagents described above, treated and control cells were incubated with 7.1 pmoles of ^125I-labeled annexin V (200 μl/well) in the binding buffer. After 2 h incubation at room temperature, cells were washed extensively and dissolved in 0.5 M of NaOH. The entire volume of 0.5 ml was transferred to plastic tubes and counted in a gamma counter. Non-specific binding was determined in the presence of 5 mM EDTA and was subtracted from experimental values. The results were expressed as net pmoles of cell-bound annexin V, normalized per 1×10^6 cells.
(§4) Maximal binding of annexin V was determined on cells simultaneously treated with actinomycin D and TNFα (50 ng/ml of each component). As has been previously reported, these agents cause apoptosis and PS exposure in 90-100% of endothelial cells (Lucas et al., 1998). Basal binding of ^125I-annexin V to untreated cells was determined in the presence of medium with 10% serum. The amount of ^125I-annexin V that bound to the untreated cultures was subtracted from that in the treated cultures. Exposure of PS was calculated according to the following formula: cell-bound annexin V (pmoles) under experimental conditions divided by maximal annexin V binding (pmoles), multiplied by 100. Each study was performed in duplicate and was performed at least three times. Mean values were calculated. The SE of the mean values from three separate experiments was less than 5%.

[3] = system: bEnd.3 cells; assay: as above; type: cell-based, mouse; conditions: for 125I-Annexin V (% of Max binding), bEnd.3 cells: 24 h, concentration as listed per treatment
Procedure: as §1, §2, §3, §4

[4] = system: bEnd.3 endothelial cells; assay: Induction of PS by H2O2: anti-PS IgM staining and Trypan Blue exclusion
[5] = system: HUVEC and HMVEC; assay: Induction of PS exposure on endothelial cells by docetaxel (FACS, 3G4 binding); type: cell-based, human; conditions: 10 nM, 24 hrs
Procedure: (§5) FIG. 24A and FIG. 24B. Induction of PS exposure on endothelial cells by docetaxel. Human umbilical vein endothelial cells (HUVEC) and human microvessel endothelial cells (HMVEC) were treated with 10 nM of docetaxel for 24 hrs. […] The cells were then washed twice, FITC labeled goat anti-mouse IgG was added and the cells incubated for a further 30 mins. on ice. The cells were then washed and analyzed by FACS using a FACSCalibur cytometer (Becton-Dickinson, San Jose, Calif.) with CellQuest acquisition software.
(§6) The induction of PS exposure on endothelial cells by subclinical concentrations of docetaxel was examined in vitro by FACS analysis. Human umbilical vein endothelial cells (HUVEC) and human microvessel endothelial cells (HMVEC) were treated with 10 nM of docetaxel for 24 hrs and examined by FACS. […] Docetaxel incubations for 48 and 72 hrs were also conducted.

[6] = system: tumor cell lines; assay: Induction of PS exposure on tumor cell lines by docetaxel (FACS); type: cell-based; conditions: 10 nM, 24 hrs
Procedure: as §5, with “25A, FIG. 25B” for “24A”, “25C.” for “24B.”, “tumor cell lines” for “endothelial cells”, “Mouse lewis lung carcinoma 3LL, mouse colon carcinoma Colo26” for “Human umbilical vein endothelial cells (HUVEC)”, “breast cancer MDA-MB-435” for “microvessel endothelial”, “cells” for “cells (HMVEC)”
FIG. 26. Induction of PS exposure on human breast cancer MDA-MB-231 cells by docetaxel. Human breast cancer MDA-MB-231 cells were treated with 10 nM of docetaxel for 24 hrs. […] The cells were then washed twice, FITC labeled anti-IgG was added and the cells analyzed by FACS, as above. There is a significant increase in ch3G4 binding as compared to control, human IgG.
(§7) The in vitro induction of PS exposure by subclinical concentrations of docetaxel was also examined by FACS analysis using a panel of tumor cell lines. Mouse lewis lung carcinoma 3 LL, mouse colon carcinoma Colo26 and human breast cancer MDA-MB-435 cells were treated with 10 nM of docetaxel for 24 hrs and examined by FACS. […] Docetaxel incubations for 48 and 72 hrs were also conducted.

[7] = system: human umbilical vein endothelial cells (HUVEC); assay: PS exposure on endothelial cells by FACS (3G4 binding), HUVEC; type: cell-based; conditions: 10 nM docetaxel, 24 hrs, compared to untreated cells
Procedure: as §6

[8] = system: human microvessel endothelial cells (HMVEC); assay: PS exposure on endothelial cells by FACS (3G4 binding), HMVEC; type: cell-based; conditions: 10 nM docetaxel, 24 hrs, compared to untreated cells
Procedure: as §6

[9] = system: Mouse lewis lung carcinoma 3 LL; assay: PS exposure on tumor cells by FACS (3G4 binding), 3LL; type: cell-based; conditions: 3 LL cells, 10 nM docetaxel, 24 hrs, compared with untreated cells
Procedure: as §7

[10] = system: mouse colon carcinoma Colo26; assay: PS exposure on tumor cells by FACS (3G4 binding), Colo26; type: cell-based; conditions: 10 nM docetaxel, 24 hrs, compared with untreated cells
Procedure: as §7

[11] = system: human breast cancer MDA-MB-435 cells; assay: PS exposure on tumor cells by FACS (3G4 binding), MDA-MB-435; type: cell-based; conditions: 10 nM docetaxel, 24 hrs, compared with untreated cells
Procedure: as §7

[12] = system: Mouse melanoma B16; assay: PS exposure on tumor cells by FACS (3G4 binding), B16; type: cell-based; conditions: docetaxel, compared with untreated cells
[13] = system: mouse firbrosarcoma Meth A; assay: PS exposure on tumor cells by FACS (3G4 binding), Meth A; type: cell-based; conditions: docetaxel, compared with untreated cells
[14] = breast cancer patients; cited from earlier work

Molecule | 125I-Annexin V (% of Max binding), ABAE cells [2] | 125I-Annexin V (% of Max binding), bEnd.3 cells [3] | also measured
NC(=O)c1nnn(Cc2cc(Cl)c(C(=O)c3ccc(Cl)cc3)c(Cl)c2)c1N [CAI, carboxyamidotriazole] |  |  | cancer patients with disease stabilization [1]: 49%
OO [Hydrogen peroxide, hydrogen peroxide] | 95.5% | 98.4% | externalization of PS by 125I-annexin V binding ([2]; 100 to 200 μM, both cell types): 95%; cells that bound biotinylated annexin V (immunohistochemically) ([2]; ABAE and bEnd.3 cells, 100 to 200 μM): More than 70%; cells with translocation of anionic phospholipids to the external surface (125I-labeled annexin V) ([3]; 200 μM for 2 h): 70-90%; cells with PS detected at the cell surface ([4]; concentrations as low as 20 μM): about 50%; cell viability ([4]; high concentrations, 1 hour): 50-60%; cells with PS translocation ([4]; high concentrations, 1 hour): ~90%; cell viability ([4]; low levels of H2O2, identical to untreated cells): 95%
CC(=O)O[C@@]12CO[C@@H]1C[C@H](O)[C@@]1(C)C(=O)[C@H](O)C3=C(C)[C@@H](OC(=O)[C@H](O)[C@@H](NC(=O)OC(C)(C)C)c4ccccc4)C[C@@](O)([C@@H](OC(=O)c4ccccc4)[C@H]21)C3(C)C [docetaxel] |  |  | 3G4 binding vs. untreated cells ([5]; HMVEC): significant increase in 3G4 binding; 3G4 binding vs. untreated cells ([5]; HUVEC): significant increase in 3G4 binding; 3G4 binding vs. untreated cells ([6]; 3LL, Colo26, MDA-MB-435 cells): significant increase in 3G4 binding; antibody (ch3G4) binding to treated cells ([6]; MDA-MB-231, vs. human IgG): significant increase in antibody binding; 3G4 binding by FACS (PS exposure) [7]: significant increase in 3G4 binding; 3G4 binding by FACS (PS exposure) [8]: significant increase in 3G4 binding; 3G4 binding by FACS (PS exposure) [9]: significant increase in 3G4 binding; 3G4 binding by FACS (PS exposure) [10]: significant increase in 3G4 binding; 3G4 binding by FACS (PS exposure) [11]: significant increase in 3G4 binding; 3G4 binding by FACS (PS exposure) [12]: significant increase in 3G4 binding; 3G4 binding by FACS (PS exposure) [13]: significant increase in 3G4 binding; serum cytokine levels and NK/LAK cell activity [14]: increase in serum IFN-γ, IL-2, IL-6 and GM-CSF cytokine levels and enhancement of NK and LAK cell activity
FGF-2: human fibroblast growth factor-2 | 0% | 0% | 
Hypoxia + IL-1α: IL-1α (10 ng/ml) under hypoxia/reoxygenation | 26.0% | 31.0% | 
IL-6: interleukin-6 | 0% | 0% | 
IL-8: interleukin-8 | 0% | 0% | 
IL-10: interleukin-10 | 0% | 0% | 
Interferon | 8.6% | 2.8% | 
Scatter factor: recombinant hepatocyte growth factor (HGF or scatter factor) | 0% | 0% | 
TGF β1: growth factor | 0% | 0% | 
TNFα | 7.4% | 13.7% | anionic phospholipid-exposure (% of the maximum) [2]: 33%
Thrombin | 8.8% | 17.4% | 
VEGF | 0% | 0% | 
B1 | 5.8% | 5.5% | 
B2 | 6.4% | 7.5% | anionic phospholipid-exposure (% of the maximum) [2]: 26%
